Measured values as given in ChEMBL document CHEMBL1141043, “Novel, selective indole-based ECE inhibitors: lead optimization via solid-phase and classical synthesis” (Bioorg Med Chem Lett, 2005).

Each molecule was assayed against T1, Endothelin-converting enzyme 1 (Homo sapiens, UniProt P42892) (assay: Inhibitory concentration against endothelin converting enzyme 1 using big-ET-1 substrate in ELISA).
T1 sequence (P42892 whole entry): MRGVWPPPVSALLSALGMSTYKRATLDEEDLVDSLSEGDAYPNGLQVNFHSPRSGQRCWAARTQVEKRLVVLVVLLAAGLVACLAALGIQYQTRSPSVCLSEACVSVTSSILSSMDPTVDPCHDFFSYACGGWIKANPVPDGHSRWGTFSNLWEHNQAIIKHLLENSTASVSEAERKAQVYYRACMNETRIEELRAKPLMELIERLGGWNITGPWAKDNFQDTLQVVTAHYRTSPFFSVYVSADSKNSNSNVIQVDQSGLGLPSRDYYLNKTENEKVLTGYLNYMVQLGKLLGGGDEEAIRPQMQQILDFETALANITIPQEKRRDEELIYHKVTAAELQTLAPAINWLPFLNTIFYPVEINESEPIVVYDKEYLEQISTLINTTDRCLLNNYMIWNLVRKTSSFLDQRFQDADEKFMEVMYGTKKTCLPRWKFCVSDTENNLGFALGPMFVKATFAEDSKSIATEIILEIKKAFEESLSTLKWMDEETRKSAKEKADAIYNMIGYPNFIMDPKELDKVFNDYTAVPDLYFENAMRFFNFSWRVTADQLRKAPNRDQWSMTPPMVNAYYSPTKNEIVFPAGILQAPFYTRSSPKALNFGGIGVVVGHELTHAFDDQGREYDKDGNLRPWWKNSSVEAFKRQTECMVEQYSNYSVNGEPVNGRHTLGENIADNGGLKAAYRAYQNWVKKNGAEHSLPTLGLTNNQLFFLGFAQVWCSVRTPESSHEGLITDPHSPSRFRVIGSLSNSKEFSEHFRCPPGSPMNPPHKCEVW

| Compound | IC50 |
| --- | --- |
| CC(C)(C)CC(=O)Nc1ccc2c(c1)cc(C(=O)Nc1cccc(C(=O)Nc3ccc(S(N)(=O)=O)cc3)c1)n2Cc1ccccc1F | 39 nM |
| CNS(=O)(=O)c1ccc(NC(=O)c2cccc(NC(=O)c3cc4cc(NC(=O)CC(C)(C)C)ccc4n3Cc3ccccc3F)c2)cc1 | 150 nM |
| C[S+]([O-])c1ccc(NC(=O)c2cccc(NC(=O)c3cc4cc(NC(=O)CC(C)(C)C)ccc4n3Cc3ccccc3F)c2)cc1 (stereo not drawn) | 66 nM |
| CC(C)(C)CC(=O)Nc1ccc2c(c1)cc(C(=O)Nc1cccc(C(=O)Nc3ccc(S(C)(=O)=O)cc3)c1)n2Cc1ccccc1F | 120 nM |

What follows are molecules tested against T1, Endothelin-converting enzyme 1 (assay: Inhibitory concentration against endothelin converting enzyme 1 using bradykinin-derived substrate).

| Compound | IC50 |
| --- | --- |
| CC(C)(C)CC(=O)Nc1ccc2c(c1)cc(C(=O)Nc1ccn[nH]1)n2Cc1ccccc1F | > 10 µM |
| CC(C)(C)CC(=O)Nc1ccc2c(c1)cc(-c1nc(-c3ccccc3)no1)n2Cc1ccccc1F | > 10 µM |
| CC(C)(C)CC(=O)Nc1ccc2c(c1)cc(CNc1ccccc1)n2Cc1ccccc1F | > 10 µM |
| CC(C)(C)CC(=O)Nc1ccc2c(c1)c(C(=O)Nc1ccccc1)cn2Cc1ccccc1F | > 10 µM |
